Test results reported in patent publication US20170281650A1 (priority 2014, published 2017).
“Also recorded” adds a separate entry of the source. Where two headings read alike, the source gives them in different places.

Assays:
[1] = Food intake, body and organ weight in hamster hyperlipidemia model; format: in vivo, Golden Syrian hamsters; conditions: 6 weeks
Experimental: (§1) Six different experimental diets were prepared by mixing the ingredients according to Table 1 and blending these mixtures with a gelatin solution (20 g/L) in a ratio of 200 g composition per liter of solution. Once the gelatin had set, the product were cut into pieces of approximately 10 g cubes and stored frozen at −80° C. until use.
(§2) 46 male Golden Syrian hamsters (n=46; body weights=110-120 g) were housed in wire-bottomed cages at 23° C. in an animal room with 12-hour light-dark cycle (one per cage). All hamsters were maintained on a standard cereal based diet for two weeks.
(§3) After this acclimation period the hamsters were randomly divided into six test groups and fed one of the experimental diets for another six weeks.

Golden Syrian hamsters [2] = test: Analysis of plasma lipoproteins (TC, HDL, non-HDL cholesterol, TG) in hamster hyperlipidemia model; format: in vivo; conditions: for plasma TC compared with the HCD group / plasma TG compared with the HCD group / plasma non-HDL-C compared with the HCD group: end of week 6; for dose dependence of the cholesterol-lowering effect: 0.2% versus 0.3% in diet
Experimental: as §1, §2, §3
Plasma total cholesterol (TC) and triacylglycerols (TG) were quantified using commercial enzymatic kits from Infinity (Waltham, Mass., U.S.A) and Stanbio Laboratories (Boerne, Tex., U.S.A.), respectively. To determine high-density lipoprotein cholesterol (HDL), low-density lipoprotein cholesterol (LDL) and very low-density lipoprotein cholesterol (VLDL) were first precipitated with a commercial kit (Stanbio) containing phosphotungstic acid and magnesium chloride. HDL cholesterol in supernatant phase was measured similarly as done for TC. Non-HDL cholesterol was calculated by deducing HDL cholesterol from TC.

Golden Syrian hamsters [3] = test: Analysis of fecal neutral and acidic sterols in hamster hyperlipidemia model; format: in vivo; conditions: for increase in excretion of cholesterol and its microbial derivatives compared with the HCD control: feces
Experimental: as §1, §3
Neutral and acidic sterols in the feces were quantified by a standard method using gas chromatography (GC). In brief, the total fecal sample (300 mg) from each hamster was freeze-dried, ground and well mixed. 0.3 mg of 5α-cholestanol was added as an internal standard for quantification of neutral sterols by GC analysis. The remaining aqueous layer was saved for the analysis of acidic sterols.

Golden Syrian hamsters [4] = format: in vivo; conditions: 6 weeks
Golden Syrian hamsters [5] = test: Analysis of liver cholesterol and dihydrocholesterol in hamster hyperlipidemia model; format: in vivo; conditions: 6 weeks
Experimental: as §1, §3
Cholesterol content in organs was determined by a standard method. Cholesterol in the tissue sample was calculated according to the amount of internal standard 5α-cholestanol added.

[6] = tested on: liver X receptor alpha (LXRα); test: Immunoblot of hepatic LXRα protein mass; format: in vivo, Golden Syrian hamsters; conditions: western blot, 6 weeks
LDL receptor [7] = test: mRNA of hepatic LDL receptor; format: in vivo, Golden Syrian hamsters; conditions: liver, 6 weeks
LDL receptor [8] = test: Immunoblot of hepatic LDL receptor protein mass; format: in vivo, Golden Syrian hamsters; conditions: liver, western blot; 0.3% in high cholesterol diet, 6 weeks
[9] = 0.2% in high cholesterol diet, week 6
[10] = 0.3% in high cholesterol diet, week 6

Row | Compound | epididymal fat pad weight compared with the control ([1]; 0.2% in high cholesterol diet) | kidney weight compared with HCD ([1]; 0.2% in high cholesterol diet) | liver weight compared with the HCD group ([1]; 0.2% in high cholesterol diet) | kidney weight compared with HCD ([1]; 0.3% in high cholesterol diet) | liver weight compared with the HCD group ([1]; 0.3% in high cholesterol diet) | Body Weight Final ([1]; 0.2% in high cholesterol diet) [g] | Body Weight Final ([1]; 0.3% in high cholesterol diet) [g] | plasma TC compared with the HCD group (Golden Syrian hamsters [2]; 0.2% in high cholesterol diet) | plasma TG compared with the HCD group (Golden Syrian hamsters [2]; 0.2% in high cholesterol diet) | plasma non-HDL-C compared with the HCD group (Golden Syrian hamsters [2]; 0.2% in high cholesterol diet) | dose dependence of the cholesterol-lowering effect (Golden Syrian hamsters [2]) | plasma TC compared with the HCD group (Golden Syrian hamsters [2]; 0.3% in high cholesterol diet) | plasma TG compared with the HCD group (Golden Syrian hamsters [2]; 0.3% in high cholesterol diet) | plasma non-HDL-C compared with the HCD group (Golden Syrian hamsters [2]; 0.3% in high cholesterol diet) | total fecal neutral sterols excreted compared with the controls (Golden Syrian hamsters [3]; [9]) | total fecal neutral sterols excreted compared with the controls (Golden Syrian hamsters [3]; [10]) | atherosclerotic plague compared with the HCD control group (Golden Syrian hamsters [4]; 0.2% in high cholesterol diet) | atherosclerotic plague compared with the HCD control group (Golden Syrian hamsters [4]; 0.3% in high cholesterol diet) | decrease in liver cholesterol (Golden Syrian hamsters [5]; 0.2% in high cholesterol diet) [%] | hepatic cholesterol levels compared with the HCD control (Golden Syrian hamsters [5]; 0.2% in high cholesterol diet) | other results
1 | CC(C)CCC[C@@H](C)[C@H]1CC[C@H]2[C@@H]3CC[C@H]4C[C@@H](O)CC[C@]4(C)[C@H]3CC[C@]12C [DHC, dihydrocholesterol] | decreased | no significant difference | decreased | reduced | decreased | 115.38 ± 9.02 | 115.43 ± 7.00 | significantly lower; also recorded: significantly reduces | significantly lower; also recorded: significantly reduces | significantly lower | not dose-dependent | significantly lower; also recorded: significantly reduces | significantly lower; also recorded: significantly reduces | significantly lower | greater | greater | significantly lesser | significantly lesser | 67.5 | significantly lower | reducing serum TG, compared with β-sitosterol (Golden Syrian hamsters [2]; 0.2% and 0.3% diets): more effective than β-sitosterol; excretion of total neutral sterols compared with corresponding SA and SB (β-sitosterol) groups (Golden Syrian hamsters [3]; 0.2% and 0.3% diets, week 6): greater; increase in excretion of cholesterol and its microbial derivatives compared with the HCD control (Golden Syrian hamsters [3]; 0.2% in high cholesterol diet): 11.5 fold; increase in excretion of cholesterol and its microbial derivatives compared with the HCD control (Golden Syrian hamsters [3]; 0.3% in high cholesterol diet): 19.1 fold; DHC accumulated in the liver (Golden Syrian hamsters [5]; 0.2% DHC in high cholesterol diet (DA)): about 2 mg DHC/g liver; reducing the liver cholesterol, compared with SA and SB (β-sitosterol) (Golden Syrian hamsters [5]; 0.2% and 0.3% diets): more effective; DHC accumulated in the liver (Golden Syrian hamsters [5]; 0.3% DHC in high cholesterol diet (DB)): about 2 mg DHC/g liver; decrease in liver cholesterol (Golden Syrian hamsters [5]; 0.3% in high cholesterol diet): 71.5%; hepatic cholesterol levels compared with the HCD control (Golden Syrian hamsters [5]; 0.3% in high cholesterol diet): significantly lower; LXRα protein mass ([6]; 0.2% in high cholesterol diet): up-regulated LXRα slightly; LXRα protein mass ([6]; 0.3% in high cholesterol diet): up-regulated LXRα slightly; mRNA level of the LDL receptor compared with the HCD control (LDL receptor [7]; 0.2% in high cholesterol diet): up-regulated; mRNA level of the LDL receptor compared with the HCD control (LDL receptor [7]; 0.3% in high cholesterol diet): up-regulated
2 | CC[C@H](CC[C@@H](C)[C@H]1CC[C@H]2[C@@H]3CC=C4C[C@@H](O)CC[C@]4(C)[C@H]3CC[C@]12C)C(C)C [β-sitosterol, reference compound] | decreased | reduced | decreased | no significant difference | decreased | 118.43 ± 13.74 | 112.00 ± 8.05 | significantly lower | significantly lower | significantly lower | dose-dependent | significantly lower | significantly lower | significantly lower | greater | greater | significantly lesser | significantly lesser | 30.5 | significantly lower | epididymal fat pad weight compared with the control ([1]; 0.3% in high cholesterol diet): decreased; reducing plasma TC, compared with DHC (Golden Syrian hamsters [2]; [10]): more effective than DHC; excretion of acidic sterols compared with corresponding DA and DB (DHC) groups (Golden Syrian hamsters [3]; 0.2% and 0.3% diets, week 6): greater; reducing the formation of atherosclerotic plague, compared with DA and DB (DHC) diets (Golden Syrian hamsters [4]; 0.2% and 0.3% diets): more effective; decrease in liver cholesterol (Golden Syrian hamsters [5]; 0.3% in high cholesterol diet): 38.4%; hepatic cholesterol levels compared with the HCD control (Golden Syrian hamsters [5]; 0.3% in high cholesterol diet): significantly lower; LDL receptor protein (LDL receptor [8]): significantly up-regulated; LXRα protein mass ([6]; 0.2% in high cholesterol diet): significantly up-regulated; LXRα protein mass ([6]; 0.3% in high cholesterol diet): significantly up-regulated; mRNA level of the LDL receptor compared with the HCD control (LDL receptor [7]; 0.2% in high cholesterol diet): up-regulated; mRNA level of the LDL receptor compared with the HCD control (LDL receptor [7]; 0.3% in high cholesterol diet): up-regulated
